Laboratory results reported in patent US8808749B2, “Polymer conjugate of bioactive substance having hydroxy group” (priority 2009, dated 2014).

What was measured:
[1] = system: Mouse colon cancer, Colon 26; test: Antitumor activity test for docetaxel conjugate; type: in vivo; settings: 100 mg/kg in terms of docetaxel, once into tail vein
Source text: Mouse colon cancer, Colon 26, maintained by serial subcutaneous subculture in mice, was minced into about 2-mm cubic fragments, and the fragments were subcutaneously transplanted on the dorsal part of female CDF1 mice with a trocar. Eight days after the tumor transplantation, the polymer conjugate according to the invention (Compound 30) or a control drug (docetaxel; DTX or PEG-Asp-DTX) was each administered once into the mouse tail vein in a way such that each mouse received the same dose per body weight in terms of docetaxel. Docetaxel was dissolved in anhydrous ethanol and cremophor (manufactured by Sigma Corporation), and diluted with physiological saline at the time of use. Other compounds were dissolved in a 5% aqueous glucose solution for injection and used. After the administration, the major axis (L mm) and the minor axis (W mm) of the tumor were measured using a caliper, and the tumor volume was calculated by the formula (L×W^2)/2.

[2] = system: Mouse colon cancer, Colon 26; test: Antitumor activity test for combretastatin A4 conjugate; type: in vivo; settings: for relative tumor volume based on non-treatment group: 200 mg/kg in terms of combretastatin A4, once into tail vein
Source text: Mouse colon cancer, Colon 26, maintained by serial subcutaneous subculture in mice, was minced into about 2-mm cubic fragments, and the fragments were subcutaneously transplanted on the dorsal part of female CDF1 mice with a trocar. Eight days after the tumor transplantation, the polymer conjugate according to the invention (Compound 22) or a control drug (combretastatin A4 phosphate ester; CA4P, PEG-Glu-CA4 or PEG-Asp-CA4) was each administered once into the mouse tail vein in a way such that each mouse received the same dose per body weight in terms of combretastatin A4. Each compound was dissolved in a 5% aqueous glucose solution and used.
After the administration, the major axis (L mm) and the minor axis (W mm) of the tumor were measured using a caliper, and the tumor volume was calculated by the formula (L×W^2)/2.

[3] = system: heart muscle; test: Effect of combretastatin A4 conjugate on heart muscle (plasma CPK); type: in vivo, mouse; settings: for creatinine phosphokinase (CPK) in plasma, average: 200 mg/kg once into tail vein
Source text: Combretastatins are known to have a side effect of causing a myocardial damage. As such, by following a change in efficacy of creatinine phosphokinase (CPK) that is released into blood when enzymes abundantly present in heart muscles or neurons are damaged, the degree of side effect of the compounds according to the invention was compared to those of known compounds.
To a non-treated female CDF1 mouse, Compound 22 as a compound of the invention and CA4P, PEG-Glu-CA4, and PEG-Asp-CA4 as a comparative compound were each administered once into the mouse tail vein. Six hours and 24 hours after the administration, three animals per each group were anesthetized with ether and blood was taken from abdominal aorta. Creatinine phosphokinase (CPK) contained in plasma was measured.

Compound	relative tumor volume based on non-treatment group ([1]; day 0 after administration)	relative tumor volume based on non-treatment group ([1]; day 3 after administration)	relative tumor volume based on non-treatment group ([1]; day 5 after administration)	relative tumor volume based on non-treatment group ([1]; day 9 after administration)	relative tumor volume based on non-treatment group ([1]; day 12 after administration)	relative tumor volume based on non-treatment group ([2]; day 0 after administration)	relative tumor volume based on non-treatment group ([2]; day 2 after administration)	relative tumor volume based on non-treatment group ([2]; day 4 after administration)	relative tumor volume based on non-treatment group ([2]; day 6 after administration)	relative tumor volume based on non-treatment group ([2]; day 8 after administration)	antitumor activity (in words) ([2]; dose of 200 mg/kg)	creatinine phosphokinase (CPK) in plasma, average ([3]; 6 hours after administration)	creatinine phosphokinase (CPK) in plasma, average ([3]; 24 hours after administration)	CPK change (in words) ([3]; dose of 200 mg/kg)
docetaxel [DTX]	1.00	0.50	0.32	0.37	0.35	–	–	–	–	–	–	–	–	–
COc1ccc(/C=C\c2cc(OC)c(OC)c(OC)c2)cc1OP(=O)(O)O [CA4P, combretastatin A4 phosphate ester]	–	–	–	–	–	1.00	0.72	0.82	0.80	0.80	weak antitumor activity	400-500 IU/L	≦200 IU/L	CPK increase was significant
